The text below walks through data of ChEMBL document CHEMBL3352120, “Enantioselective induction of SIRT1 gene by syringaresinol from Panax ginseng berry and Acanthopanax senticosus Harms stem” (Bioorg Med Chem Lett, 2015).

Activity calls are given as the source filed them. No cut-off for these calls is given here.

For data set [1], the system named is HUVEC. In words: Induction of SIRT1 mRNA expression in HUVEC at 5 to 100 uM by quantitative RT-PCR analysis. Conditions: Homo sapiens. It counts as functional, cell-based.
Data set [2] relates to HUVEC. In words: Induction of SIRT1 mRNA expression in HUVEC at 5 to 100 uM after 24 hrs by luciferase reporter gene assay relative to untreated control. The class given is functional, cell-based. Conditions: Homo sapiens. (In a reporter assay the amount or activity of a reporter protein is the signal.)
In data set [3] the test system is HUVEC. Nature of the data set: Cytotoxicity against HUVEC assessed as cell viability at 5 to 300 uM after 24 hrs by MTT assay. The class given is cell-based. To be noted: human. (In general: Tetrazolium assays rely on reduction of a dye to a coloured formazan, in cell work by metabolically active cells.)
Data set [4] concerns the target T1, Forkhead box protein O3 (Homo sapiens, UniProt O43524). Nature of the data set: Induction of FOXO3a binding to SIRT1 in HUVEC at 50 uM after 24 hrs by chromatin immunoprecipitation assay.
Data set [5] addresses T1, Forkhead box protein O3. In words: Binding affinity to His-tagged FOXO3a (unknown origin) by SPR analysis.
The subject of data set [6] is HUVEC. Nature of the data set: Induction of SIRT1 mRNA expression in HUVEC by quantitative RT-PCR analysis. The class given is functional, cell-based. To be noted: Homo sapiens.
In data set [7] the test system is HUVEC. In words: Induction of SIRT1 mRNA expression in HUVEC after 24 hrs by luciferase reporter gene assay relative to untreated control. It counts as functional, cell-based. To be noted: Homo sapiens.

T1 sequence (O43524 whole entry): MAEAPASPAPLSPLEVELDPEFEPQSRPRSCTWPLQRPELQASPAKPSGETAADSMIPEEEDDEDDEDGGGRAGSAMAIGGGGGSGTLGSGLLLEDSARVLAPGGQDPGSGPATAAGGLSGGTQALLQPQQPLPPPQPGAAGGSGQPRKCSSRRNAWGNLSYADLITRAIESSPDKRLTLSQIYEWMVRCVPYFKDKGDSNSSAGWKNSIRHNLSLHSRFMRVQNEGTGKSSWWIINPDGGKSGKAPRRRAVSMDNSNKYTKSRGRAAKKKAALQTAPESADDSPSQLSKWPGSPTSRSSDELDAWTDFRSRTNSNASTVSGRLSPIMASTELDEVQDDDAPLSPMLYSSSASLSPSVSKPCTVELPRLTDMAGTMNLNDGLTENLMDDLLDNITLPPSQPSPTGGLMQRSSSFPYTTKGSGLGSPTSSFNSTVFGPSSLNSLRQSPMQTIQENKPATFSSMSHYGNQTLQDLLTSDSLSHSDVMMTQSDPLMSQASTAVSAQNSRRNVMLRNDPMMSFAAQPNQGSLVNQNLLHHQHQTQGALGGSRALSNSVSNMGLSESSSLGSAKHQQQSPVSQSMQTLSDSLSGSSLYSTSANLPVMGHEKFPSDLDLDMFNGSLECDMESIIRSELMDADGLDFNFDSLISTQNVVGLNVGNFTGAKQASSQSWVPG

Regarding `COc1cc([C@@H]2OC[C@@H]3[C@H]2CO[C@H]3c2cc(OC)c(O)c(OC)c2)cc(OC)c1O`, the outcome in the data set on HUVEC [1], in the data set on HUVEC [2], on Forkhead box protein O3 [4] and on Forkhead box protein O3 [5] was inactive. Also, the Activity entry in the data set with HUVEC [3] is recorded as “Non-toxic”.
Consider `COc1cc([C@H]2OC[C@H]3[C@@H]2CO[C@@H]3c2cc(OC)c(O)c(OC)c2)cc(OC)c1O` [SYRINGARESINOL], for which the Activity entry with HUVEC [6] is “Dose-dependent effect”; in the data set on HUVEC [7], “Dose-dependent effect”; in the data set with HUVEC [3] it was “Non-toxic”. The outcome at Forkhead box protein O3 [4] was Active. In addition, binding at Forkhead box protein O3 [5] was put at a Kd of 1730 µM.
